These results are taken from patent publication US20230143604A1, “QW DOSING OF GIP RECEPTOR AGONIST PEPTIDE COMPOUNDS AND USES THEREOF” (TAKEDA PHARMACEUTICAL COMPANY LIMITED, priority 2020, published 2023).

The nature of data set [1]: Serum half-life and percentage remaining at 48 hours. Particulars: human plasma, 500 nM peptide, 37° C.; for half-life at 500 nM / remaining at 48 h, 500 nM: both sexes, pH 7.4; for half-life at 500 nM: read-out: Serum t1/2 (converted); for remaining at 48 h, 500 nM: plasma (sodium heparin). The data set is classed as in vitro ADME. How it is done:
Human plasma (mixed gender: sodium heparin is used as anti-coagulant; pre-adjusted to pH 7.4—NB alternative species may be used) is spiked with each test peptide (500 nM) and incubated·cn=3) at 37° C. for 48 hours in a 5% CO2 environment. Aliquots are taken at 0. 1, 2, 4, 7, 24 and […] and pH adjusted to pH 3 with 20% formic acid prior to analysis. Appropriate positive control compounds will be incubated in parallel, in addition to a no plasma control, sampled at 0 and 8 hours. All samples will be treated with ice-cold acetonitrile/methanol (4:1 (v/v)) containing internal standard prior to centrifugation at 2000 g and 4° C. for 10 minutes and subjected to LC-MS/MS analysis.
The samples are analyzed by LC-MS/MS using a 6500 (or equivalent) triple quadrupole mass spectrometer (AB Sciex) coupled to an appropriate Liquid Chromatography (LC) system. Protein binding and stability values are determined via peak area ratios using multiple reaction monitoring (MRM) parameters following compound optimisation. Multiple reaction monitoring (MRM) is a highly sensitive method of targeted mass spectrometry (MS) that can be used to selectively detect and quantify peptides based on the screening of specified precursor peptide-to-fragment ion transitions.

Data set [2] in a line: Solubility in phosphate buffer pH 7.4. Put shortly:
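3 mg of peptide treated with 100 μL portions of 200 mM phosphate buffer pH 7.4, sonicating/vortexing up to 1 min, with further buffer added until fully dissolved. Solubility then quantified by HPLC.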

A short description of data set [3]: Pharmacokinetics in dog after IV and SC dosing. To be noted: in vivo. How it is done: Pharmacokinetic (PK) were conducted in dog in order to determine the half-life after IV and SC dosing. The peptide was dissolved in 10% DMSO/0.09% Polysorbate/PBS pH 7.4 to a concentration of 3 nmol/mL and the animal were dose with a volume of 1 mL/kg SC or IV. Blood sample were collected at 0, 0.033, 0.083, 0.25, 0.5, 1, 2, 4, 6, 8, 12, 24, 48, 72, 96, 120, 168, 336 hours for IV dosing and 0.25, 0.5, 1, 2, 4, 6, 8, 12, 24, 48, 72, 96, 120, 168, 336 for SC dosing, EDTA-K2 was used as anticoagulant. The plasma concentration of the peptide was measured using LCMS. Allometric scaling of lipidated peptide pharmacokinetics including T1/2 and MRT is known in the art for rodent to dog and mini pig and to humans. […] See for example, Discovery and Development of Liraglutide and Semaglutide. Knudsen, L. B.; Lau, J. Frontiers in Endocrinology, 2019, vol 10, Article 155.

A short description of data set [4]: Dog plasma protein binding (PPB). Type of data set: in vitro ADME. To be noted: pH 7.4; fraction unbound; dog serum; read-out: Dog PPB (FUplasma). Put shortly:
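Dog serum replaced human serum, with the protocol and analysis otherwise the same as for human plasma protein binding. Values are reported as fraction unbound (Fu,plasma) expressed as a percentage.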

Data set [5] is described as follows: Human plasma protein binding (PPB). The data set is classed as in vitro ADME. In short, it runs like this: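 Peptides spiked at 1000 nmol/L into pooled human K2-EDTA plasma adjusted to pH 7.4, incubated 30 min at 37 °C, then ultracentrifuged at ~450,000 g, 4 °C for 3 h. Fu derived from LC-MS/MS (MRM) peak area ratios, supernatant versus plasma.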
Setting [6] is: pH 7.4, aqueous buffer, pH 7.4 Phosphate Buffer - Solubility, 200 mM Phosphate buffer pH 7.4.
The mark [7] stands for this setting: pH 7.4, solubility in phosphate buffer at pH 7.4, 200 mM phosphate buffer pH 7.4.

Starred links: 1 amine or outer side, 2 acyl side, 3 side chain; linkers in the order of their positions; H or OH if unused. Non-standard residues stand in square brackets, D forms with d. Residues, ends and D or L forms follow the SMILES beside them. Groups on a side chain read outwards from the residue. *: point of attachment. C18 diacid = O=C(O)CCCCCCCCCCCCCCCCC(=O)*; C17 diacid = O=C(O)CCCCCCCCCCCCCCCC(=O)*; γGlu = O=C(O)[C@H](CCC(=O)[*:2])N[*:1]; NMeY = CN[C@@H](Cc1ccc(O)cc1)C(=O)O; AEEA = NCCOCCOCC(=O)O; Aib = CC(C)(N)C(=O)O Bounds are passed on as bounds.

On to `CC[C@H](C)[C@H](NC(=O)[C@H](CO)NC(=O)[C@H](Cc1ccc(O)cc1)NC(=O)[C@H](CC(=O)O)NC(=O)[C@H](CO)NC(=O)[C@@H](NC(=O)[C@H](Cc1ccccc1)NC(=O)[C@@H](NC(=O)CNC(=O)[C@H](CCC(=O)O)NC(=O)C(C)(C)NC(=O)[C@H](Cc1ccc(O)cc1)NC)[C@@H](C)O)[C@@H](C)CC)C(=O)N[C@@H](C)C(=O)N[C@@H](CC(C)C)C(=O)N[C@@H](CC(=O)O)C(=O)N[C@@H](CCCNC(=N)N)C(=O)N[C@@H](CCCCNC(=O)COCCOCCNC(=O)COCCOCCNC(=O)CC[C@H](NC(=O)CCCCCCCCCCCCCCCCC(=O)O)C(=O)O)C(=O)N[C@@H](Cc1c[nH]cn1)C(=O)N[C@@H](CCC(N)=O)C(=O)N[C@@H](CCC(N)=O)C(=O)N[C@@H](CC(N)=O)C(=O)N[C@@H](Cc1ccccc1)C(=O)N[C@H](C(=O)N[C@@H](CC(N)=O)C(=O)N[C@@H](Cc1c[nH]c2ccccc12)C(=O)N[C@@H](CC(C)C)C(=O)N[C@@H](CC(C)C)C(=O)N[C@@H](C)C(=O)N[C@@H](CCC(N)=O)C(=O)N[C@@H](CCCNC(=N)N)C(=O)N1CCC[C@H]1C(=O)N[C@@H](CO)C(=O)N[C@@H](CO)C(=O)NCC(=O)N[C@@H](C)C(=O)N1CCC[C@H]1C(=O)N1CCC[C@H]1C(=O)N1CCC[C@H]1C(=O)N[C@@H](CO)C(N)=O)C(C)C` [Compound 4] (H-[NMeY][Aib]EGTFISDYSIALDRK([AEEA-AEEA-γGlu-C18 diacid])HQQNFVNWLLAQRPSSGAPPPS-NH2), for which the half-life at 500 nM in data set [1] is 17.1 h. Besides, the share remaining (commonly the share of the starting amount still present when the sample was taken) at 48 h, 500 nM in data set [1] (48 hr) is 15%. Further, the solubility (in general, how much of the substance goes into solution per volume) in data set [2] (setting [6]) was at least 30 mg/mL; in data set [2] (setting [7]) it was at least 15 mg/mL.
Turning to `CC[C@H](C)[C@H](NC(=O)[C@H](CO)NC(=O)[C@H](Cc1ccc(O)cc1)NC(=O)[C@H](CC(=O)O)NC(=O)[C@H](CO)NC(=O)[C@@H](NC(=O)[C@H](Cc1ccccc1)NC(=O)[C@@H](NC(=O)CNC(=O)[C@H](CCC(=O)O)NC(=O)C(C)(C)NC(=O)[C@H](Cc1ccc(O)cc1)NC)[C@@H](C)O)[C@@H](C)CC)C(=O)N[C@@H](C)C(=O)N[C@@H](CC(C)C)C(=O)N[C@@H](CC(=O)O)C(=O)N[C@@H](CCCNC(=N)N)C(=O)NC(C)(C)C(=O)N[C@@H](Cc1c[nH]cn1)C(=O)N[C@@H](CCC(N)=O)C(=O)NC(C)(C)C(=O)N[C@@H](CC(N)=O)C(=O)N[C@@H](Cc1ccccc1)C(=O)N[C@H](C(=O)N[C@@H](CC(N)=O)C(=O)N[C@@H](Cc1c[nH]c2ccccc12)C(=O)N[C@@H](CC(C)C)C(=O)N[C@@H](CC(C)C)C(=O)N[C@@H](C)C(=O)N[C@@H](CCC(N)=O)C(=O)N[C@@H](CCCCNC(=O)COCCOCCNC(=O)COCCOCCNC(=O)CC[C@H](NC(=O)CCCCCCCCCCCCCCCCC(=O)O)C(=O)O)C(=O)N1CCC[C@H]1C(=O)N[C@@H](CO)C(=O)N[C@@H](CO)C(=O)NCC(=O)N[C@@H](C)C(=O)N1CCC[C@H]1C(=O)N1CCC[C@H]1C(=O)N1CCC[C@H]1C(=O)N[C@@H](CO)C(N)=O)C(C)C` [Compound 1] (H-[NMeY][Aib]EGTFISDYSIALDR[Aib]HQ[Aib]NFVNWLLAQK([AEEA-AEEA-γGlu-C18 diacid])PSSGAPPPS-NH2), in data set [1], the half-life at 500 nM was above 48 h. The share remaining at 48 h, 500 nM in data set [1] (48 hr) came to 100%. In addition, the solubility was at least 30 mg/mL in data set [2] (setting [6]) and at least 15 mg/mL in data set [2] (setting [7]).
Consider `CC[C@H](C)[C@H](NC(=O)[C@H](Cc1ccccc1)NC(=O)[C@@H](NC(=O)CNC(=O)[C@H](CCC(=O)O)NC(=O)C(C)(C)NC(=O)[C@H](Cc1ccc(O)cc1)NC)[C@@H](C)O)C(=O)N[C@@H](CO)C(=O)N[C@@H](CC(=O)O)C(=O)N[C@@H](Cc1ccc(O)cc1)C(=O)N[C@@H](CO)C(=O)N[C@H](C(=O)NC(C)(C)C(=O)N[C@@H](CC(C)C)C(=O)N[C@@H](CC(=O)O)C(=O)N[C@@H](CCCNC(=N)N)C(=O)N[C@@H](CCCCNC(=O)COCCOCCNC(=O)COCCOCCNC(=O)CC[C@H](NC(=O)CC[C@H](NC(=O)CCCCCCCCCCCCCCCC(=O)O)C(=O)O)C(=O)O)C(=O)N[C@@H](C)C(=O)N[C@@H](CCC(N)=O)C(=O)NC(C)(C)C(=O)N[C@@H](CC(N)=O)C(=O)N[C@@H](Cc1ccccc1)C(=O)N[C@H](C(=O)N[C@@H](CC(N)=O)C(=O)N[C@@H](Cc1c[nH]c2ccccc12)C(=O)N[C@@H](CC(C)C)C(=O)N[C@@H](CC(C)C)C(=O)N[C@@H](C)C(=O)N[C@@H](CCC(N)=O)C(=O)N[C@@H](CCCNC(=N)N)C(=O)N1CCC[C@H]1C(=O)N[C@@H](CO)C(=O)N[C@@H](CO)C(=O)NCC(=O)N[C@@H](C)C(=O)N1CCC[C@H]1C(=O)N1CCC[C@H]1C(=O)N1CCC[C@H]1C(=O)N[C@@H](CO)C(N)=O)C(C)C)[C@@H](C)CC` [Compound 15] (H-[NMeY][Aib]EGTFISDYSI[Aib]LDRK([AEEA-AEEA-γGlu-γGlu-C17 diacid])AQ[Aib]NFVNWLLAQRPSSGAPPPS-NH2), for which the half-life at 500 nM in data set [1] is above 48 h. Also, the “% Remaining at 48 hr” value in data set [1] (48 hr) is 131.1%. Besides, the half-life in data set [3] (IV 3 nmol/kg, read-out: IV T½ (converted)) was 57 h. Moreover, the MRT last (commonly a mean duration of stay, worked out from the concentration-time curve) in data set [3] (SC 3 nmol/kg, read-out: SC MRT 0-last) was determined as 64 h. Besides, the fraction unbound at 30 min, 1000 nmol/L came to 0.0021 in data set [4] and 0.0017 in data set [5] (both sexes, pH 7.4, fraction unbound, human plasma, 1000 nmol/L peptide, ultracentrifugation, read-out: Human PPB (FUplasma)). Also, the “free unbound peptide in human plasma (in words)” value in data set [5] (judged for once per week (QW) dosing) is reported as “optimum free unbound peptide”. Also, the figures for the solubility in data set [2] (setting [6]) and in data set [2] (setting [7]) were at least 30 mg/mL and at least 15 mg/mL, respectively.
